Test system: human prostate cancer cells 22Rvl
Assay: Cell viability inhibition assay (CTG) on 22Rvl cells
Type: cell-based
Settings: 120 h, no DHT, 5 days, read-out: Inhibitory activity against human prostate cancer cells 22Rvl IC50
Text: Human prostate cancer cells LNCaP and human prostate cancer cells 22Rvl are present in patients with prostate cancer. An androgen, DHT, is able to promote the growth of human prostate cancer cells LNCaP. Using the cell model described above was intended to study the inhibitory effects of the compounds of the present disclosure on the growth of human prostate cancer cells (human prostate cancer cells LNCaP and human prostate cancer cells 22Rvl) in the presence or absence of DHT. […]
The medium in the culture dish was discarded, and 5 mL of trypsin was added for digestion for about 3 mins. […] 1 mL of the cells was taken and counted, and the cell viability was detected. […]
After the cells were attached to the well, for the human prostate cancer cells LNCaP group, test compounds (0.1 μM, 0.3 μM, 1 μM, 3 μM, 10 μM, and 30 μM) and DHT (1 nM, inducing the expression of AR) were added to the 96-well plate, and the plate was incubated for another 5 days; for the human prostate cancer cells 22Rvl group, test compounds (0.1 μM, 0.3 μM, 1 μM, 3 μM, 10 μM, and 30 μM) were added to the 96-well plate, and the plate was incubated for another 5 days. […] The cell viability was detected by using a CTG method. […] The fluorescence value in each well was then detected. […] For data analysis, an assay background value was subtracted from all data points, which was determined in wells containing the medium but no cells. […]

IC50: 350 nM
Compound: COc1ccc(/C=C/C(=O)C2(C(=O)/C=C/c3ccc(OC)c(OC)c3)CCC(F)(F)CC2)cc1OC [Compound 8]
